These results are taken from US20070232615A1, “Chemical Compounds” (priority 2004, published 2007).

This experiment concerns HIV. As to the kind of experiment: HOS HIV infectivity assay (Table 2, strain not given). Particulars: Human immunodeficiency virus 1, read-out: Activity Level. The class given is cell-based. The protocol:
HOS HIV-1 Infectivity Assay
Compounds were profiled against two HIV-1 viruses, the M-tropic (CCR5 utilizing) Ba-L strain and the T-tropic (CXCR4 utilizing) IIIB strain. Both viruses were propagated in human peripheral blood lymphocytes. Compounds were tested for there ability to block infection of the HOS cell line (expressing hCXCR4/hCCR5/hCD4/pHIV-LTR-luciferase) by either HIV-1 Ba-L or HIV-1 IIIB. Compound cytotoxicity was also examined in the absence of virus addition.
HOS HIV-1 Infectivity Assay Format
HOS cells (expressing hCXCR4/hCCR5/hCD4/pHIV-LTR-luciferase) were harvested and diluted in Dulbeccos modified Eagles media supplemented with 2% FCS and non-essential amino acid to a concentration of 60,000 cells/ml. The cells were plated into 96-well plates (100 ul per well) and the plates were placed in a tissue culture incubator (37° C.; 5% CO2/95% air) for a period of 24 h.
Subsequently, 50 ul of the desired drug solution (4 times the final concentration) was added to each well and the plates were returned to the tissue culture incubator (37° C.; 5% CO2/95% air) for 1 h. Following this incubation 50 ul of diluted virus was added to each well (approximately 2 million RLU per well of virus). The plates were returned to the tissue culture incubator (37° C.; 5% CO2/95% air) and were incubated for a further 96 h.
Following this incubation the endpoint for the virally infected cultures was quantified following addition of Steady-Glo Luciferase assay system reagent (Promega, Madison, Wis.). Cell viability or non-infected cultures was measured using a CellTiter-Glo luminescent cell viability assay system (Promega, Madison, Wis.). All luminescent readouts are performed on a Topcount luminescence detector (Packard, Meridien, Conn.).
`COc1ccc(CN(Cc2cn3c(N4CCN(C)CC4)cccc3n2)[C@H]2CCCc3cccnc32)cc1` [Example 74, (8S)—N-{[4-(Methyloxy)phenyl]methyl}-N-{[5-(4-methyl-1-piperazinyl)imidazo[1,2-a]pyridin-2-yl]methyl}-5,6,7,8-tetrahydro-8-quinolinamine]: the IC50 was < 100 nM. As for `CC(C)c1ccc(CN(Cc2cn3c(N4CCN(C)CC4)cccc3n2)[C@H]2CCCc3cccnc32)cc1` [Example 75, (8S)—N-{[4-(1-Methylethyl)phenyl]methyl}-N-{[5-(4-methyl-1-piperazinyl)imidazo[1,2-a]pyridin-2-yl]methyl}-5,6,7,8-tetrahydro-8-quinolinamine], the IC50 is < 100 nM. To `CC(C)Cc1ccc(CN(Cc2cn3c(N4CCN(C)CC4)cccc3n2)[C@H]2CCCc3cccnc32)cc1` [Example 77, (8S)—N-{[5-(4-Methyl-1-piperazinyl)imidazo[1,2-a]pyridin-2-yl]methyl}-N-{[4-(2-methylpropyl)phenyl]methyl}-5,6,7,8-tetrahydro-8-quinolinamine] belongs < 100 nM; to `CN1CCN(c2cccc3nc(CN(CCO)[C@H]4CCCc5cccnc54)cn23)CC1` [Example 78, 2-{{[5-(4-Methyl-1-piperazinyl)imidazo[1,2-a]pyridin-2-yl]methyl}[(8S)-5,6,7,8-tetrahydro-8-quinolinyl]amino}ethanol], < 100 nM; to `CN1CCN(c2cccc3nc(CN(CCCO)[C@H]4CCCc5cccnc54)cn23)CC1` [Example 79, 3-{{[5-(4-Methyl-1-piperazinyl)imidazo[1,2-a]pyridin-2-yl]methyl}[(8S)-5,6,7,8-tetrahydro-8-quinolinyl]amino}-1-propanol], < 100 nM.

As for `CN(Cc1cn2c(N3CCC(N)CC3)cccc2n1)[C@H]1CCCc2cccnc21` [Example 80, (8S)—N-{[5-(4-Amino-1-piperidinyl)imidazo[1,2-a]pyridin-2-yl]methyl}-N-methyl-5,6,7,8-tetrahydro-8-quinolinamine], the IC50 is < 100 nM.

In the case of `CN(C)CCN(C)c1cccc2nc(CN(C)[C@H]3CCCc4cccnc43)cn12` [Example 81, N,N,N′-Trimethyl-N′-[2-({methyl[(8S)-5,6,7,8-tetrahydro-8-quinolinyl]amino}methyl)imidazo[1,2-a]pyridin-5-yl]-1,2-ethanediamine], the IC50 was < 100 nM.

With `CN(Cc1cn2c(N3CCN4CCCC4C3)cccc2n1)[C@H]1CCCc2cccnc21` (stereo partly drawn) [Example 82, (8S)—N-{[5-(Hexahydropyrrolo[1,2-a]pyrazin-2(1H)-yl)imidazo[1,2-a]pyridin-2-yl]methyl}-N-methyl-5,6,7,8-tetrahydro-8-quinolinamine], the IC50 is < 100 nM. With `CN(C)[C@@H]1CCN(c2cccc3nc(CN(C)[C@H]4CCCc5cccnc54)cn23)C1` [Example 83, (8S)—N-({5-[(3R)-3-(Dimethylamino)-1-pyrrolidinyl]imidazo[1,2-a]pyridin-2-yl}methyl)-N-methyl-5,6,7,8-tetrahydro-8-quinolinamine], the IC50 was < 100 nM. As to `CN(Cc1cn2c(N3CCCNCC3)cccc2n1)[C@H]1CCCc2cccnc21` [Example 84, (8S)—N-{[5-(Hexahydro-1H-1,4-diazepin-1-yl)imidazo[1,2-a]pyridin-2-yl]methyl}-N-methyl-5,6,7,8-tetrahydro-8-quinolinamine], the IC50 was < 100 nM. As for `CN1CCCN(c2cccc3nc(CN(C)[C@H]4CCCc5cccnc54)cn23)CC1` [Example 85, (8S)—N-Methyl-N-{[5-(4-methylhexahydro-1H-1,4-diazepin-1-yl)imidazo[1,2-a]pyridin-2-yl]methyl}-5,6,7,8-tetrahydro-8-quinolinamine], the IC50 was < 100 nM. Consider `CN1CCC(N(C)c2cccc3nc(CN(C)[C@H]4CCCc5cccnc54)cn23)C1` (stereo partly drawn) [Example 86, (8S)—N-Methyl-N-({5-[methyl(1-methyl-3-pyrrolidinyl)amino]imidazo[1,2-a]pyridin-2-yl}methyl)-5,6,7,8-tetrahydro-8-quinolinamine], for which the IC50 is < 100 nM. Take `CN1CCC(N(C)c2cccc3nc(CN(C)[C@H]4CCCc5cccnc54)cn23)CC1` [Example 87, (8S)—N-Methyl-N-({5-[methyl(1-methyl-4-piperidinyl)amino]imidazo[1,2-a]pyridin-2-yl}methyl)-5,6,7,8-tetrahydro-8-quinolinamine]: the IC50 was < 100 nM. To `CCN1CCN(c2cccc3nc(CN(C)[C@H]4CCCc5cccnc54)cn23)CC1` [Example 88, (8S)—N-{[5-(4-Ethyl-1-piperazinyl)imidazo[1,2-a]pyridin-2-yl]methyl}-N-methyl-5,6,7,8-tetrahydro-8-quinolinamine] belongs < 100 nM; to `CC(C)N1CCN(c2cccc3nc(CN(C)[C@H]4CCCc5cccnc54)cn23)CC1` [Example 89, (8S)—N-Methyl-N-({5-[4-(1-methylethyl)-1-piperazinyl]imidazo[1,2-a]pyridin-2-yl}methyl)-5,6,7,8-tetrahydro-8-quinolinamine], < 100 nM. In the case of `CN(C)[C@H]1CCN(c2cccc3nc(CN(C)[C@H]4CCCc5cccnc54)cn23)C1` [Example 91, (8S)—N-({5-[(3S)-3-(Dimethylamino)-1-pyrrolidinyl]imidazo[1,2-a]pyridin-2-yl}methyl)-N-methyl-5,6,7,8-tetrahydro-8-quinolinamine], the IC50 is < 100 nM. In the case of `CN(Cc1cn2c(N3CC[C@@H](N)C3)cccc2n1)[C@H]1CCCc2cccnc21` [Example 92, (8S)—N-({5-[(3R)-3-Amino-1-pyrrolidinyl]imidazo[1,2-a]pyridin-2-yl}methyl)-N-methyl-5,6,7,8-tetrahydro-8-quinolinamine], the IC50 was < 100 nM. To `CCN(CC)[C@@H]1CCN(c2cccc3nc(CN(C)[C@H]4CCCc5cccnc54)cn23)C1` [Example 93, (8S)—N-({5-[(3R)-3-(Diethylamino)-1-pyrrolidinyl]imidazo[1,2-a]pyridin-2-yl}methyl)-N-methyl-5,6,7,8-tetrahydro-8-quinolinamine] belongs < 100 nM; to `COc1ccc([C@H](C)N(Cc2cn3c(N4CC[C@@H](N(C)C)C4)cccc3n2)[C@H]2CCCc3cccnc32)cc1` [Example 95, (8S)—N-({5-[(3R)-3-(Dimethylamino)-1-pyrrolidinyl]imidazo[1,2-a]pyridin-2-yl}methyl)-N-{(1S)-1-[4-(methyloxy)phenyl]ethyl}-5,6,7,8-tetrahydro-8-quinolinamine], 100 to 500 nM; to `CCN(Cc1cn2c(N3CC[C@@H](N(C)C)C3)cccc2n1)[C@H]1CCCc2cccnc21` [Example 96, (8S)—N-({5-[(3R)-3-(Dimethylamino)-1-pyrrolidinyl]imidazo[1,2-a]pyridin-2-yl}methyl)-N-ethyl-5,6,7,8-tetrahydro-8-quinolinamine], < 100 nM.

For `CCCN(Cc1cn2c(N3CC[C@@H](N(C)C)C3)cccc2n1)[C@H]1CCCc2cccnc21` [Example 97, (8S)—N-({5-[(3R)-3-(Dimethylamino)-1-pyrrolidinyl]imidazo[1,2-a]pyridin-2-yl}methyl)-N-propyl-5,6,7,8-tetrahydro-8-quinolinamine], the IC50 is < 100 nM. With `CC(C)N(Cc1cn2c(N3CC[C@@H](N(C)C)C3)cccc2n1)[C@H]1CCCc2cccnc21` [Example 98, (8S)—N-({5-[(3R)-3-(Dimethylamino)-1-pyrrolidinyl]imidazo[1,2-a]pyridin-2-yl}methyl)-N-(1-methylethyl)-5,6,7,8-tetrahydro-8-quinolinamine], the IC50 was < 100 nM.
